Source: PMC3871529, “At a Supra-Physiological Concentration, Human Sexual Hormones Act as Quorum-Sensing Inhibitors” (PLoS ONE, 2013)

Tests used:
LasR = target: T1, LasR (Pseudomonas aeruginosa, UniProt P25084); assay: E. coli bioindicator expressing LasR (pAL105, lasI::luxCDABE luminescence); assay type: cell-based; conditions: OC12-HSL 100 µM; QSIs at 0.1 mg/ml, naringenin and naringin at 0.5 mg/ml
T1 construct: expressed in transfected cells; host or cells: Escherichia coli JLD271 carrying pAL105 (pSB401-derivative, lasR+ lasI::luxCDABE)
T1 sequence (P25084 whole entry): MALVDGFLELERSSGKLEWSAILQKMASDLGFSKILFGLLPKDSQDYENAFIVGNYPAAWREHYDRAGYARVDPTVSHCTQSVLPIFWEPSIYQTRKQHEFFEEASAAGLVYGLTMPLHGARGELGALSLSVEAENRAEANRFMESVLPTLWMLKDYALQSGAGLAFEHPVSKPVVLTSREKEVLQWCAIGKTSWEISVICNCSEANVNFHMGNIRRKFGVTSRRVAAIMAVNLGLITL
Method: (§1) We determined whether the AHL-binding transcriptional factors LasR and RhlR were impaired in their capacity to activate expression of the QS-regulated genes in the presence of various QSIs. This was achieved by using two E. coli bioindicator strains expressing either LasR or RhlR proteins and harboring an appropriate reporter lux operon for measuring their transcriptional activity in the presence of OC12-HSL at 100 µM and C4-HSL at 10 µM, respectively. Adding C4-HSL to the pAL101-bioindicator or OC12-HSL to the pAL105-bioindicator induced the expression of the reporter lux operon and the consequent production of luminescence. In contrast, only background levels of luminescence were detected in control strains harboring the plasmids pAL102 or pAL106, which lacks the rhlR or lasR gene, respectively.
(§2) Figure 7 QSIs modulated activity of the AHL-sensors in P. aeruginosa. Luminescence of the reporting operon lux, expressed in relative light units (RLU/OD600), was measured in E. coli bioindicator strains harboring the LasR (A) and RhlR (B) AHL-sensing systems of P. aeruginosa in the presence of […]. The QSIs estradiol, estrone, estriol and hordenine were added at 0.1 mg/ml, while naringenin and naringin, added at 0.5 mg/ml, were used as QSI-reference and non-QSI reference, respectively. Each test (n = 6) was compared with the DMSO-condition using Student's t test. Asterisks indicate statistically different data (p value of ≤0.01).
(§3) Escherichia coli JLD271 biosensor strains harboring LasR- and RhlR-based plasmids pAL105 and pAL101 and control plasmids pAL106 (LasR^-) and pAL102 (RhlR^−) (Table 1) were prepared according to Vandeputte et al.. Briefly, these strains were grown in LB medium supplemented with tetracycline (10 µg/ml) and chloramphenicol (25 µg/ml) for 24 h. Then 50-µl portions of the cultures were subcultured in 1 ml of LB medium (the starting OD600 ranged between 0.02 and 0.025 corresponding to 5.10^6 CFU) supplemented with 10 µl of DMSO (1% [vol/vol] final), 10 µl of naringenin or naringin dissolved in DMSO (2 mM, final concentration), or 10 µl of the molecule to be tested. To induce the expression of the lux operon, 0, 1, 10 or […] of C4-HSL was added to pAL101 and pAL102, while OC12-HSL was added to pAL105 and pAL106. After incubation for 2 h at 37°C with agitation (175 rpm), 200 µl of culture was transferred to 96-well OptiPlate-96 F plates from Perkin-Elmer, and the luminescence of each sample was measured by using a TopCount NXT device from Perkin-Elmer. The LasR(pAL106) and RhlR(pAL102) biosensors were used for background subtraction, and the OD600 values were measured to account for the differences in cell density. All experiments were performed in six replicates. The statistical significance of each test was evaluated by conducting Student's t tests using the GraphPad Prism software, and p values ≤0.05 were considered significant. Naringenin (4′,5,7-trihydroxyflavanone), naringin (4′,5,7-trihydroxyflavanone 7-rhamnoglucoside), the AHLs OC12-HSL and C4-HSL were purchased from Sigma-Aldrich and dissolved freshly in 100% DMSO before use. Tested QSIs were dissolved in 100% DMSO before use.

RhlR = target: T2, RhlR (Pseudomonas aeruginosa, UniProt P54292); assay: E. coli bioindicator expressing RhlR (pAL101, rhlI::luxCDABE luminescence); assay type: cell-based; conditions: C4-HSL 10 µM; QSIs at 0.1 mg/ml, naringenin and naringin at 0.5 mg/ml
T2 construct: expressed in transfected cells; host or cells: Escherichia coli JLD271 carrying pAL101 (pSB401-derivative, rhlR+ rhlI::luxCDABE)
T2 sequence (P54292 whole entry): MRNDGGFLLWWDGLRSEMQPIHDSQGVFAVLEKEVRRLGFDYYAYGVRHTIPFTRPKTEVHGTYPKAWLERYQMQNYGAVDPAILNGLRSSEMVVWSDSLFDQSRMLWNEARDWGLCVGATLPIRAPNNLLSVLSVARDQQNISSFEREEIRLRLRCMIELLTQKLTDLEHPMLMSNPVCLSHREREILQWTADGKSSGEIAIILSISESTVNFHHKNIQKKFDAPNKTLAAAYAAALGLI
Method: as §1, §2, §3

[1] = tested on: Agrobacterium biosensor cells; assay: Minimal inhibitory concentration (MIC); assay type: cell-based, Agrobacterium tumefaciens; conditions: Agrobacterium; 10^5 CFU/ml, 36 h at 30°C; read-out: MIC
Method: (§4) Aside from the effect of QSI on QS regulation, the toxicity of these compounds was tested on bacterial cells by measuring two parameters: the minimal inhibitory concentration (MIC) and minimal bactericidal concentration (MBC). MIC, which is the lowest concentration of QSI (µg/ml) inhibiting any visible culture after 36 h of incubation at 30°C, was estimated by culturing 10^5 CFU/ml of the Agrobacterium biosensor cells in the presence of different concentrations of the QSI. MBC, which is the lowest concentration of QSI (µg/ml) that results in a 99.9% reduction of the initial bacterial population (10^5 CFU/ml) after 36 h of incubation at 30°C in the presence of different concentrations of QSI, was estimated by plating 100 µL of the Agrobacterium cultures on agar LBm plates. After an incubation of 48 h at 30°C, CFU were counted and the MBC values were calculated.

[2] = tested on: QS-regulated genes lasI, lasR, lasB, rhlI, rhlR, rhlA in P. aeruginosa PAO1; assay: QS-regulated gene expression, lacZ transcriptional fusions in PAO1; assay type: cell-based, Pseudomonas aeruginosa; conditions: QSI at 0.5 mg/ml, 18 hours at 37°C, β-galactosidase
Method: Figure 6 QSIs modulated QS-regulated genes in P. aeruginosa. The β-galactosidase (b-Gal) activity in Miller unit (MU) of the transcriptional fusions lasI-lacZ (A), lasR-lacZ (B), lasB-lacZ (C), rhlI-lacZ (D), rhlR-lacZ (E), rhlA-lacZ (F), and aecA-lacZ(G) were measured in the presence of estradiol, estrone, estriol, hordenine at 0.5 mg/ml, and naringenin at 1 mg/ml as a positive control and DMSO as a negative control. The statistical significance of each test (n = 5 and three biological replicates) was evaluated by Student's t test (i.e. each test was compared with the DMSO condition). Asterisks indicate statistically different data (p value of ≤0.01).
(§5) QS gene transcription in P. aeruginosa PAO1 was monitored using PAO1 strains carrying various gene promoters fused to a lacZ reporter gene, as described in Vandeputte et al., 2010 and Table 1. PAO1 reporter strains were prepared according to Vandeputte et al.. Briefly, 18-hours-old liquid cultures (50 µl) were diluted in order to obtain a starting OD600 nm comprised between 0.02 and 0.03 in fresh LB medium supplemented with 50 mM MOPS pH 7.0 (1 ml), carbenicillin (300 µg/ml) and 10 µl of the QSIs to be tested (OD were measured using a SpectraMax M2 device from Molecular Devices). Test and control QSIs were diluted in 100% DMSO (resulting after addition to the growth medium in a 1% final concentration of DMSO). Cultures were incubated for 18 hours at 37°C with agitation. After incubation, cell densities were assessed spectrophotometrically (OD600 nm) and β-galactosidase assays were performed using the substrate o-nitrophenyl-β-D-galactopyranoside as described previously, [29]. Promoterless-lacZ fusions were used as controls. AHLs were quantified as described in Vandeputte et al.. All tests were performed in quintuplicates and three biological repetitions. The statistical significance of each test was evaluated by conducting Student's t tests and two-way ANOVA combined with the Tukey post-analysis test using the GraphPad Prism software and p values≤0.01 were considered significant.

P. aeruginosa = assay: Growth kinetics of P. aeruginosa in the presence of QSIs; assay type: cell-based, Pseudomonas aeruginosa; conditions: QSI at 0.5 mg/ml, OD600 and CFU at 8 and 18 hour
Method: (§6) Figure 5 QSIs modulated QS-signal accumulation in P. aeruginosa. Growth kinetics (n = 6) of P. aeruginosa was measured (OD600) in the presence of the QSIs (estradiol, estrone, estriol, hordenine and 4-NPO) at 0.5 mg/ml using DMSO as a negative control. Cell counts were assessed (CFU/ml) at 8- and 18-hour, and C4-HSL and OC12-HSL concentration (µM) were determined in the bacterial cultures at 18-hour. Statistically different values (Student's t test with α = 0.01) are noted by asterisks.
as §5

[3] = tested on: QS-signal accumulation in P. aeruginosa; assay: AHL (C4-HSL, OC12-HSL) quantification in P. aeruginosa cultures by mass spectrometry; assay type: cell-based, Pseudomonas aeruginosa; conditions: QSI at 0.5 mg/ml, 18-hour
Method: as §6, §5

[4] = tested on: Agrobacterium biosensor cells; assay: Minimal bactericidal concentration (MBC); assay type: cell-based, Agrobacterium tumefaciens; conditions: Agrobacterium; 99.9% reduction of 10^5 CFU/ml after 36 h at 30°C; read-out: MBC
Method: as §4

O=C1CC(c2ccc(O)cc2)Oc2cc(O)cc(O)c21 (centres unmarked) [naringenin, 4′,5,7-trihydroxyflavanone]
effect on LasR functionality (lux luminescence) (LasR): less luminescence | effect on RhlR functionality (lux luminescence) (RhlR): less luminescence

C[C@]12CC[C@@H]3c4ccc(O)cc4CC[C@H]3[C@@H]1CC[C@@H]2O [Estradiol, estradiol]
MIC [1]: > 100 mg/L | effect on LasR functionality (lux luminescence) (LasR): affected LasR functionality | expression of six QS-regulated genes (lasI, lasR, lasB, rhlI, rhlR, rhlA) [2]: decreased | effect on growth of P. aeruginosa (P. aeruginosa): did not affect the growth | C4-HSL concentration in cell cultures [3]: reduction | OC12-HSL concentration in cell cultures [3]: reduction | MBC [4]: > 100 mg/L

C[C@@H]1O[C@@H](O[C@H]2[C@H](Oc3cc(O)c4c(c3)O[C@H](c3ccc(O)cc3)CC4=O)O[C@H](CO)[C@@H](O)[C@@H]2O)[C@H](O)[C@H](O)[C@H]1O [naringin, 4′,5,7-trihydroxyflavanone 7-rhamnoglucoside]
effect on LasR functionality (lux luminescence) (LasR): no effect | effect on RhlR functionality (lux luminescence) (RhlR): no effect
